This is an account of results in US8524712B2, “Triazinone and diazinone derivatives useful as HSP90 inhibitors” (Synta Pharmaceuticals Corp., priority 2007, dated 2013).

One test has as its system MV-4-11 cells. Description: IC50 of Table 2: Method 2, MV-4-11 cell survival (Cell Counting Kit-8), reported as Her2 degradation / inhibition of Hsp90. It is filed as cell-based. The conditions noted are these: Homo sapiens, MV4-11, 72 hours at 37° C., text calls it Her2 degradation, table title inhibition of Hsp90. How it is done: MV-4-11 cells (20,000 cells/well) were cultured in 96-well plates and maintained at 37° C. for several hours. The cells were treated with a compound of the invention or 17AAG (a positive control) at various concentrations and incubated at 37° C. for 72 hours. Cell survival was measured with Cell Counting Kit-8 (Dojindo Laboratories, Cat. #CK04).
(Formazan colour is commonly taken as a measure of viable cells.)

The next test deals with Her2. Description: Degradation of Her2 in BT-474 cells, Method 1 (Western blot). It is filed as cell-based, human. The conditions noted are these: 0.5 μM, overnight. How it is done: Human high-Her2 breast carcinoma BT474 (HTB-20), SK-BR-3 (HTB-30) and MCF-7 breast carcinoma (HTB-22) from American Type Culture Collection, VA, USA were grown in Dulbecco's modified Eagle's medium with 4 mM L-glutamine and antibiotics (100 IU/ml penicillin and 100 ug/ml streptomycine; GibcoBRL). To obtain exponential cell growth, cells were trypsinized, counted and seeded at a cell density of 0.5×10^6 cells/ml regularly, every 3 days. All experiments were performed on day 1 after cell passage.
BT-474 cells are treated with 0.5 μM, 2 μM, or 5 μM of 17AAG (a positive control) or 0.5 μM, 2 μM, or 5 μM of a compound of the invention overnight in DMEM medium. After treatment, each cytoplasmic sample is prepared from 1×10^6 cells by incubation of cell lysis buffer (#9803, cell Signaling Technology) on ice for 10 minutes. The resulting supernatant used as the cytosol fractions is dissolved with sample buffer for SDS-PAGE and run on a SDS-PAGE gel, blotted onto a nitrocellulose membrane by using semi-dry transfer. Non-specific binding to nitrocellulose is blocked with 5% skim milk in TBS with 0.5% Tween at room temperature for 1 hour, then probed with anti-Her2/ErB2 mAb (rabbit IgG, #2242, Cell Signaling) and anti-Tubulin (T9026, Sigma) as housekeeping control protein. […]
On the technique in general: In western blotting, separated proteins are transferred to a membrane and probed.

Turning to `CCOC(=O)C1=C(C)NC(=O)NC1c1cc(C(C)C)c(O)cc1O` (stereo not drawn) [Compound 1, ethyl 4-(2,4-dihydroxy-5-isopropylphenyl)-6-methyl-2-oxo-1,2,3,4-tetrahydropyrimidine-5-carboxylate], in the test with MV-4-11 cells, the IC50 (as a rule, the concentration that inhibits the measured activity by half) was above 100 µM.
Turning to `CCN1CC2=C(C1=O)C(c1cc(C(C)C)c(O)cc1O)NC(=O)N2` (stereo not drawn) [Compound 2, 4-(2,4-dihydroxy-5-isopropylphenyl)-6-ethyl-3,4,6,7-tetrahydro-1H-pyrrolo[3,4-d]pyrimidine-2,5-dione], in the test on MV-4-11 cells, the IC50 is above 100 µM.
The compound `CC(C)c1cc(C2NC(=O)NC3=C2C(=O)OC3)c(O)cc1O` (stereo not drawn) [Compound 3, 4-(2,4-dihydroxy-5-isopropylphenyl)-3,4-dihydrofuro[3,4-d]pyrimidine-2,5(1H,7H)-dione] returned an IC50 in the test with MV-4-11 cells above 500 µM.
On to `CC(C)c1cc(C2=NNC(=O)CN2c2ccc3c(ccn3C)c2)c(O)cc1O` [Compound 4, 3-(2,4-dihydroxy-5-isopropylphenyl)-4-(1-methyl-1H-indol-5-yl)-4,5-dihydro-1,2,4-triazin-6(1H)-one], for which the IC50 with MV-4-11 cells was above 50 µM.
`CC(C)c1cc(C2=NNC(=O)CN2Cc2ccc3c(c2)OCO3)c(O)cc1O` [Compound 5, 4-(benzo[d][1,3]dioxol-5-ylmethyl)-3-(2,4-dihydroxy-5-isopropylphenyl)-4,5-dihydro-1,2,4-triazin-6(1H)-one]: the midpoint of inhibition in the test with MV-4-11 cells, the IC50, lay at 38.4 µM. In other words, the double-digit micromolar range.
`CC(C)c1cc(C2=NNC(=O)CN2c2ccc(N3CCOCC3)cc2)c(O)cc1O` [Compound 6, 3-(2,4-dihydroxy-5-isopropylphenyl)-4-(4-morpholinophenyl)-4,5-dihydro-1,2,4-triazin-6(1H)-one] gave an IC50 in the test on MV-4-11 cells above 50 µM.
For `CC(C)c1cc(C2=NNC(=O)CN2c2ccc(N(C)C)cc2)c(O)cc1O` [Compound 7, 3-(2,4-dihydroxy-5-isopropylphenyl)-4-(4-(dimethylamino)phenyl)-4,5-dihydro-1,2,4-triazin-6(1H)-one], the IC50 with MV-4-11 cells is above 50 µM.
As for `COc1ccc(CN2CC(=O)NN=C2c2cc(C(C)C)c(O)cc2O)cc1` [Compound 8, 3-(2,4-dihydroxy-5-isopropylphenyl)-4-(4-methoxybenzyl)-4,5-dihydro-1,2,4-triazin-6(1H)-one], in the test on MV-4-11 cells, the IC50 was above 50 µM.
With `C=CCNC1=C2C[C@@H](C)C[C@H](OC)[C@H](O)[C@@H](C)/C=C(\C)[C@H](OC(N)=O)[C@@H](OC)/C=C\C=C(/C)C(=O)NC(=CC1=O)C2=O` [Compound 17AAG, 17-allylamino-17-demethoxygeldanamycin], the “degradation of Her2” value with Her2 is recorded as “partial degradation”.
